From PMC9757750 (Science Advances, 2022)

Target: LegA15 (Legionella pneumophila, UniProt Q5ZSR1)
Assay: biochemical

LegA15, sequence (Q5ZSR1 1-471): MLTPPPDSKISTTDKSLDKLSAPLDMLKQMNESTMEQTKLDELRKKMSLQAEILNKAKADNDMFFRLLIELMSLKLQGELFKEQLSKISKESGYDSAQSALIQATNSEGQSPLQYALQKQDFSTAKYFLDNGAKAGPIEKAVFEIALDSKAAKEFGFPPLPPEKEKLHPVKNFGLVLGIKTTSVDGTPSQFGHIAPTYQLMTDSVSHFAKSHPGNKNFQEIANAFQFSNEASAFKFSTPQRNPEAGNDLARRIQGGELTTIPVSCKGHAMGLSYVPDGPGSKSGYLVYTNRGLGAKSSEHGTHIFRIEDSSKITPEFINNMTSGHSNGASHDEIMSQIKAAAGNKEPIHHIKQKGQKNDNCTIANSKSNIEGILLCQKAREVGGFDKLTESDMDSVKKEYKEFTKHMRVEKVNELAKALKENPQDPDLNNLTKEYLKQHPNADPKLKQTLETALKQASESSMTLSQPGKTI

Row | SMILES | Kd [µM]
1 | Nc1nc2c(ncn2[C@@H]2O[C@H](COP(=O)(O)OP(=O)(O)OP(=O)(O)O)[C@@H](O)[C@H]2O)c(=O)[nH]1 [GTP] | 1.38
2 | Nc1nc2c(ncn2[C@@H]2O[C@H](COP(=O)(O)OP(=O)(O)O)[C@@H](O)[C@H]2O)c(=O)[nH]1 [GDP] | 20.5
